Reference: ChEMBL document CHEMBL5331145, “Discovery of a Novel Bifunctional Steroid Analog, YXG-158, as an Androgen Receptor Degrader and CYP17A1 Inhibitor for the Treatment of Enzalutamide-Resistant Prostate Cancer” (J Med Chem, 2023)

What was measured:
LNCaP = assay: Antiproliferative activity against human LNCaP cells incubated for 6 days by CellTiter-Glo assay; assay type: functional, cell-based
[1] = molecular target: Voltage-gated inwardly rectifying potassium channel KCNH2 (Homo sapiens, UniProt Q12809); assay: Inhibition of human ERG by patch clamp assay; assay type: toxicity
Androgen receptor = molecular target: T1, Androgen receptor (Homo sapiens, UniProt P10275); assay: Induction of androgen receptor degradation in human LNCaP cells incubated for 24 hrs by ELISA; assay type: cell-based
T1 sequence (P10275 whole entry): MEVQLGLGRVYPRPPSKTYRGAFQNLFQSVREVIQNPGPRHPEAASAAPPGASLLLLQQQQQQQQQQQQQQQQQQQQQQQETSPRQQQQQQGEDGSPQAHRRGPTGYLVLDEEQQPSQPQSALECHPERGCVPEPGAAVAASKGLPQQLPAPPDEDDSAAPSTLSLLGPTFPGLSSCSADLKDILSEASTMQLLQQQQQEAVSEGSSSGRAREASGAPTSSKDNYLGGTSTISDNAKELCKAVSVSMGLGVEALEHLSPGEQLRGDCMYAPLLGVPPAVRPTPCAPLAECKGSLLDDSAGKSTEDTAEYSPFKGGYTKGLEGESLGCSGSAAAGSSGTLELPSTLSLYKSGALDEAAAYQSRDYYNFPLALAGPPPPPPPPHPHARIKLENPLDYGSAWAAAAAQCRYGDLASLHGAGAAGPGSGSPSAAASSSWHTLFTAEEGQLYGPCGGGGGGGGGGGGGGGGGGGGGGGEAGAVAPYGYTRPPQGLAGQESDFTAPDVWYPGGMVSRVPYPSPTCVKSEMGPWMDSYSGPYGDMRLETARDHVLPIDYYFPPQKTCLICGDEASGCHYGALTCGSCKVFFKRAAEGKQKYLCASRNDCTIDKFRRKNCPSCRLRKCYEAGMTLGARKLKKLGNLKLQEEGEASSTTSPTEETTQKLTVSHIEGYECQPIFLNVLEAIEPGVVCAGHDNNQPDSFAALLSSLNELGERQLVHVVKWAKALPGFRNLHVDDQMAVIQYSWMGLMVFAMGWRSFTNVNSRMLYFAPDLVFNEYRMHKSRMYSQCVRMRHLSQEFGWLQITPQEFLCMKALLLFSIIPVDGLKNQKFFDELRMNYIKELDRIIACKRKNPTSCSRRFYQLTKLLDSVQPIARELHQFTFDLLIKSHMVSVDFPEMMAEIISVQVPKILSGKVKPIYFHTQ

[2] = molecular target: T2, Steroid 17-alpha-hydroxylase/17,20 lyase (Homo sapiens, UniProt P05093); assay: Inhibition of recombinant human CYP17A1 using progesterone as substrate incubated for 5 mins in presence of NADPH by LC-MS/MS analysis; assay type: ADME
T2 sequence (P05093 whole entry): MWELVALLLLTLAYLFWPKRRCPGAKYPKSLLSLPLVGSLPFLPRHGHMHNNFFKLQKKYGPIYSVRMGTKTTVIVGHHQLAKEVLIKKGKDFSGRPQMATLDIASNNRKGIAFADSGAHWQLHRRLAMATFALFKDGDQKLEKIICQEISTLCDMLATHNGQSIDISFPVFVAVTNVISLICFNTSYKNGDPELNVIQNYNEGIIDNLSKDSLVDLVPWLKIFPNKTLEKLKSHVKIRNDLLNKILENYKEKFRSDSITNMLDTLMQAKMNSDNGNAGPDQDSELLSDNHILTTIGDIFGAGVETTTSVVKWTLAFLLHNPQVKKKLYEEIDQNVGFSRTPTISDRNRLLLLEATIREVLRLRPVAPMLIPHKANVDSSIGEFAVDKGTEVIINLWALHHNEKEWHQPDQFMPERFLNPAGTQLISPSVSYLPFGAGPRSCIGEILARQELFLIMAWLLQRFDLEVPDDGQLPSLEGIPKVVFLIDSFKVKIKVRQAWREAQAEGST

[3] = Half life in Sprague-Dawley rat at 10 mg/kg, po measured upto 24 hrs by LC-MS/MS analysis; assay type: ADME, organism-based; settings: in vivo
[4] = Tmax in Sprague-Dawley rat at 10 mg/kg, po measured upto 24 hrs by LC-MS/MS analysis; assay type: ADME, organism-based; settings: in vivo
[5] = Cmax in Sprague-Dawley rat at 10 mg/kg, po measured upto 24 hrs by LC-MS/MS analysis; assay type: ADME, organism-based; parameters: dose 10 mg/kg, time < 24 hrs, route po; settings: in vivo
[6] = AUC(0 to t) in Sprague-Dawley rat at 10 mg/kg, po measured upto 24 hrs by LC-MS/MS analysis; assay type: ADME, organism-based; settings: in vivo
[7] = Effect on androgen sensitive organs in testosterone propionate stimulated castrated male Sprague-Dawley rat assessed as seminal vesicles weight loss at 20 mg/kg, po administered once daily for 10 days and measured 24 hrs post last dose; assay type: functional; settings: time 11 day
[8] = Effect on androgen sensitive organs in testosterone propionate stimulated castrated male Sprague-Dawley rat assessed as ventral prostate weight loss at 20 mg/kg, po administered once daily for 10 days and measured 24 hrs post last dose; assay type: functional; settings: time 11 day
[9] = Antitumor activity against human LNCaP/AR cells xenografted in SCID male mouse assessed as tumor growth inhibition at 10 mg/kg, po administered once daily for 28 days and measured every 3 days; assay type: functional; settings: Homo sapiens, LNCaP/AR, 672 h, time 28 day, read-out: TGI
[10] = Toxicity in SCID male mouse xenografted with human LNCaP/AR cells assessed as tolerability at 10 to 30 mg/kg, po administered once daily for 28 days and measured every 3 days; assay type: organism-based; settings: in vivo, 672 h, dose 10-30 mg/kg, time 28 day
[11] = Toxicity in SCID male mouse xenografted with human LNCaP/AR cells assessed as animal weight loss at 10 to 30 mg/kg, po administered once daily for 28 days and measured every 3 days; assay type: organism-based; settings: in vivo, 672 h, dose 10-30 mg/kg, time 28 day
[12] = Toxicity in BALB/c mouse xenografted with enzalutamide resistant human LNCaP C4-2B cells assessed as body weight loss at 10 to 30 mg/kg, po administered once daily for 28 days and measured every 3 days; assay type: organism-based; settings: in vivo, 672 h, dose 10-30 mg/kg, time 28 day
Progesterone receptor = Progesterone receptor (Homo sapiens, UniProt P06401); assay: Antagonist activity at PR (unknown origin)
Glucocorticoid receptor = Glucocorticoid receptor (Homo sapiens, UniProt P04150); assay: Antagonist activity at GR (unknown origin)
Estrogen receptor = Estrogen receptor (Homo sapiens, UniProt P03372); assay: Antagonist activity at ERalpha (unknown origin)
Cytochrome P450 1A2 = Cytochrome P450 1A2 (Homo sapiens, UniProt P05177); assay: Inhibition of CYP1A2 (unknown origin); assay type: ADME
Cytochrome P450 2C19 = Cytochrome P450 2C19 (Homo sapiens, UniProt P33261); assay: Inhibition of CYP2C19 (unknown origin); assay type: ADME
Cytochrome P450 2C9 = Cytochrome P450 2C9 (Homo sapiens, UniProt P11712); assay: Inhibition of CYP2C9 (unknown origin); assay type: ADME
Cytochrome P450 2D6 = Cytochrome P450 2D6 (Homo sapiens, UniProt P10635); assay: Inhibition of CYP2D6 (unknown origin); assay type: ADME
Cytochrome P450 3A4 [13] = molecular target: T3, Cytochrome P450 3A4 (Homo sapiens, UniProt P08684); assay: Inhibition of CYP3A4 (unknown origin) using midazolam substrate; assay type: ADME
Cytochrome P450 3A4 [14] = molecular target: T3, Cytochrome P450 3A4; assay: Inhibition of CYP3A4 (unknown origin) using testosterone as substrate; assay type: ADME
[15] = system: GABA-A receptor; anion channel; assay: Antagonist activity at GABA-A (unknown origin) at 40 uM relative to control; assay type: toxicity; settings: human
[16] = Mutagenicity in Salmonella typhimurium TA98 in presence of liver S9 fraction by AMES test; assay type: toxicity, subcellular; settings: salmonella enterica subsp. enterica serovar typhimurium
[17] = Mutagenicity in Salmonella typhimurium TA100 in presence of liver S9 fraction by AMES test; assay type: toxicity, subcellular; settings: salmonella enterica subsp. enterica serovar typhimurium
[18] = Mutagenicity in Salmonella typhimurium TA1535 in presence of liver S9 fraction by AMES test; assay type: toxicity, subcellular; settings: salmonella enterica subsp. enterica serovar typhimurium
[19] = Mutagenicity in Salmonella typhimurium TA1537 in presence of liver S9 fraction by AMES test; assay type: toxicity, subcellular; settings: salmonella enterica subsp. enterica serovar typhimurium
[20] = Mutagenicity in Escherichia coli WP2 uvrA in presence of liver S9 fraction by AMES test; assay type: toxicity, subcellular
[21] = Mutagenicity in Salmonella typhimurium TA98 in absence of liver S9 fraction by AMES test; assay type: toxicity; settings: salmonella enterica subsp. enterica serovar typhimurium
[22] = Mutagenicity in Salmonella typhimurium TA100 in absence of liver S9 fraction by AMES test; assay type: toxicity; settings: salmonella enterica subsp. enterica serovar typhimurium
[23] = Mutagenicity in Salmonella typhimurium TA1535 in absence of liver S9 fraction by AMES test; assay type: toxicity; settings: salmonella enterica subsp. enterica serovar typhimurium
[24] = Mutagenicity in Salmonella typhimurium TA1537 in absence of liver S9 fraction by AMES test; assay type: toxicity; settings: salmonella enterica subsp. enterica serovar typhimurium
[25] = Mutagenicity in Escherichia coli WP2 uvrA in absence of liver S9 fraction by AMES test; assay type: toxicity
[26] = Genotoxicity in CHL cells in absence of rat liver S9 fraction by micronucleus test; assay type: toxicity, cell-based, Cricetulus griseus; settings: chinese hamster
[27] = Genotoxicity in CHL cells in presence of rat liver S9 fraction by micronucleus test; assay type: toxicity, Cricetulus griseus; settings: chinese hamster

T3 sequence (P08684 whole entry): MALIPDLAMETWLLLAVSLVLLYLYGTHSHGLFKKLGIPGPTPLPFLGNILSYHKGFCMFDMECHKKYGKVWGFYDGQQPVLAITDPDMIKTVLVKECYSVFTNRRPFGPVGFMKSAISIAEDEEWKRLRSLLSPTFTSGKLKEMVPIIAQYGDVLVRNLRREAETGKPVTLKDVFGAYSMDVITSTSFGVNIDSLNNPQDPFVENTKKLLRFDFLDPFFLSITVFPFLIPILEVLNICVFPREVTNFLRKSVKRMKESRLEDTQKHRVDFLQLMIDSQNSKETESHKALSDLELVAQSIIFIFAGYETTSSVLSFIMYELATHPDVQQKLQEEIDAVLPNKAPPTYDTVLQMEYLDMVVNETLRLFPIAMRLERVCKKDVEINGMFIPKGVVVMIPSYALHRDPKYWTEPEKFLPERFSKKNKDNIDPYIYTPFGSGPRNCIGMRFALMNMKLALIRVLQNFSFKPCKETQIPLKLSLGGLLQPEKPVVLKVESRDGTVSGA
Chain of Progesterone receptor (P06401 whole entry): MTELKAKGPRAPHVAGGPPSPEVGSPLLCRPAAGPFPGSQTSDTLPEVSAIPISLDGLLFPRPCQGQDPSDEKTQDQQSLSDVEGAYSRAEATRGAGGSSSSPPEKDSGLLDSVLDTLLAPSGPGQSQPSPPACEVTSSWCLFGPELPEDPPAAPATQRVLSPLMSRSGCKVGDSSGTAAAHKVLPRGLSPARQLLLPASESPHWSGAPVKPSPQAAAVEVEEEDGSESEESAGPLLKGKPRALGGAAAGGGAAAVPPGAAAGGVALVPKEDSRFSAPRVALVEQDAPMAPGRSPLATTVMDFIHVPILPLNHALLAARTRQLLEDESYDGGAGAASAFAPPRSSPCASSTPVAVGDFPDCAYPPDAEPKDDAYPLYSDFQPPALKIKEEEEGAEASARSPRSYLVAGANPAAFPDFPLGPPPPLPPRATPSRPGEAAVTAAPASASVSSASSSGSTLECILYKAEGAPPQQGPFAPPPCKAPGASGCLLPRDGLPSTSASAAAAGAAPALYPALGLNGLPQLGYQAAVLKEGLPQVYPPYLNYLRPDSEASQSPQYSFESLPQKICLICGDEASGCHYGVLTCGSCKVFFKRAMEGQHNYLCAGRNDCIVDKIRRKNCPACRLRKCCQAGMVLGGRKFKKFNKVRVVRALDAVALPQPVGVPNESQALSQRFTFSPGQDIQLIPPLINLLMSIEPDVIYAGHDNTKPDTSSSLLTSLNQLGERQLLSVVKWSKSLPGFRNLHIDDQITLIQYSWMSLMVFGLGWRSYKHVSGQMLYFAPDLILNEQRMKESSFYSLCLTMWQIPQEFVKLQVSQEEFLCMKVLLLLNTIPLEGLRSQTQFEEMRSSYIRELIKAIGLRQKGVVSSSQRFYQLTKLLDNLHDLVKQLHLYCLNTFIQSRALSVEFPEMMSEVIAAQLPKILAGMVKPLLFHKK
Chain of Cytochrome P450 2D6 (P10635 whole entry): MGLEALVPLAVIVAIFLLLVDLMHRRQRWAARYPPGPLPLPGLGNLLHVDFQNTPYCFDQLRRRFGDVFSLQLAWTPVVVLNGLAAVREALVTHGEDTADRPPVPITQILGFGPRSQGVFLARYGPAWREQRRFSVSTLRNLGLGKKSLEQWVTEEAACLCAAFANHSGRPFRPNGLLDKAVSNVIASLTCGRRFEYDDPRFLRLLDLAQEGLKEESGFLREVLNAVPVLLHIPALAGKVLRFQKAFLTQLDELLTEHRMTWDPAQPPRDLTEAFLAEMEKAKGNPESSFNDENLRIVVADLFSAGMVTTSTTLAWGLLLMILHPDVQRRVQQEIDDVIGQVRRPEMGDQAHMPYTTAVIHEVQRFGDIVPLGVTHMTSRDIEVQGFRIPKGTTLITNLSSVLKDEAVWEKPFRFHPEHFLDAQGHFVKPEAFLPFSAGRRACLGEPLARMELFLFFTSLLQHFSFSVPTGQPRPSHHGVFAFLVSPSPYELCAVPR
Chain of Voltage-gated inwardly rectifying potassium channel KCNH2 (Q12809 whole entry): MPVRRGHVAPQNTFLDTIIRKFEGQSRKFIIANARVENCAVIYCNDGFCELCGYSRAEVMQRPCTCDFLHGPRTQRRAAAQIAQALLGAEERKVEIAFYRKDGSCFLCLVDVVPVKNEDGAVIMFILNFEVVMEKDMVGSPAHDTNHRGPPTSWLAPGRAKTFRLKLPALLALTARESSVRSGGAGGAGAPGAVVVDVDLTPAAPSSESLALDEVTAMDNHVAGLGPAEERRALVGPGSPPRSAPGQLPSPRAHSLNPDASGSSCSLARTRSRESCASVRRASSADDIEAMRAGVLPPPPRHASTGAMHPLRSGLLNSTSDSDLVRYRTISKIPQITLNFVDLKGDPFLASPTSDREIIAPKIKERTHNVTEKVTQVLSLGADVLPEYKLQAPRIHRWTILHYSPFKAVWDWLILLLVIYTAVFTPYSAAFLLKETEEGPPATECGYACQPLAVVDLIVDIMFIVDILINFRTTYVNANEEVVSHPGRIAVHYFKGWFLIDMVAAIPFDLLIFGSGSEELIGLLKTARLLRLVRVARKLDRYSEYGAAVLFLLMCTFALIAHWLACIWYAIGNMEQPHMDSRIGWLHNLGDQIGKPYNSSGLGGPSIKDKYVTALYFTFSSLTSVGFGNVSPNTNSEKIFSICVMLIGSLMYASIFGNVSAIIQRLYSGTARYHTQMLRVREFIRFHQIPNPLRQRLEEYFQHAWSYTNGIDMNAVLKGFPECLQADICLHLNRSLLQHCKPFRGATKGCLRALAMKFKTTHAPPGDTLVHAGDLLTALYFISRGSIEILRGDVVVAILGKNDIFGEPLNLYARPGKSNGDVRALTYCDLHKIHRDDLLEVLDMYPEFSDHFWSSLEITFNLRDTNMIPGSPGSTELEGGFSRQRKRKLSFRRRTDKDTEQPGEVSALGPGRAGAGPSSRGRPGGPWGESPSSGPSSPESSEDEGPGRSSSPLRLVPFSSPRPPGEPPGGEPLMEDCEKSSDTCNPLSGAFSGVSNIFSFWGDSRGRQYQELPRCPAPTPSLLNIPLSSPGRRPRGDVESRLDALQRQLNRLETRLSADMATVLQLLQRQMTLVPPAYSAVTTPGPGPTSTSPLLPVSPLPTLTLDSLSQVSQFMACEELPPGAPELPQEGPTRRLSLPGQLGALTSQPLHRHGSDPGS
Chain of Glucocorticoid receptor (P04150 whole entry): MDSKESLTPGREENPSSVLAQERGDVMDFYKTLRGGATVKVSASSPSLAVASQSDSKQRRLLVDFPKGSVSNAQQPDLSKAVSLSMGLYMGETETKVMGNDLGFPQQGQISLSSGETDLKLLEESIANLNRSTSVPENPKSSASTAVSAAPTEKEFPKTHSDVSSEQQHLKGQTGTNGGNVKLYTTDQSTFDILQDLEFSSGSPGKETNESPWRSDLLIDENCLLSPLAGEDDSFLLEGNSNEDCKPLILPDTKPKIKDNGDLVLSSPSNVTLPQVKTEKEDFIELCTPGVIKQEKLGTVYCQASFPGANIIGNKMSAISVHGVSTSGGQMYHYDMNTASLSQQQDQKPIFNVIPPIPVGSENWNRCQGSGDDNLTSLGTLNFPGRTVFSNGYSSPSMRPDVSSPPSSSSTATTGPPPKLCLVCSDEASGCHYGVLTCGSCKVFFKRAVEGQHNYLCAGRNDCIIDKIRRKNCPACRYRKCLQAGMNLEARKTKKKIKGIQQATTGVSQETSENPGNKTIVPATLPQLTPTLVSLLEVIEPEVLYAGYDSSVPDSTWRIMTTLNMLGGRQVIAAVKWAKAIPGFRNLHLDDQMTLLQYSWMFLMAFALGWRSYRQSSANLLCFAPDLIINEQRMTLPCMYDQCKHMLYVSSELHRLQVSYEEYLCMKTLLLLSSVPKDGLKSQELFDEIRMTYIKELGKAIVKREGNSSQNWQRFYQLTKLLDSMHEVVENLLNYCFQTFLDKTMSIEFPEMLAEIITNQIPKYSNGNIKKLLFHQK
Chain of Cytochrome P450 1A2 (P05177 whole entry): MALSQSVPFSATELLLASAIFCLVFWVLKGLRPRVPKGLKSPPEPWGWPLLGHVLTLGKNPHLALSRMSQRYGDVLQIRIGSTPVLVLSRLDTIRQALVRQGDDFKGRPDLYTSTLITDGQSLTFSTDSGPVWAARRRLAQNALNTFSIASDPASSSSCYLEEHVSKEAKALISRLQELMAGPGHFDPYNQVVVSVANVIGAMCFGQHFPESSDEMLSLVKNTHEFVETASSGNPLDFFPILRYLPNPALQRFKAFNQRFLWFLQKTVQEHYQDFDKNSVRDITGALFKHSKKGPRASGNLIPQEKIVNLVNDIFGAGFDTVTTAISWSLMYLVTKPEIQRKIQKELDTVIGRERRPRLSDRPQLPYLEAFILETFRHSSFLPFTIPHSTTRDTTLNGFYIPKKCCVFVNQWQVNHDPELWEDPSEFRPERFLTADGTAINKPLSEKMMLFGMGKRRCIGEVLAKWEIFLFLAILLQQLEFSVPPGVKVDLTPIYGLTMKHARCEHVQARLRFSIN
Chain of Estrogen receptor (P03372 whole entry): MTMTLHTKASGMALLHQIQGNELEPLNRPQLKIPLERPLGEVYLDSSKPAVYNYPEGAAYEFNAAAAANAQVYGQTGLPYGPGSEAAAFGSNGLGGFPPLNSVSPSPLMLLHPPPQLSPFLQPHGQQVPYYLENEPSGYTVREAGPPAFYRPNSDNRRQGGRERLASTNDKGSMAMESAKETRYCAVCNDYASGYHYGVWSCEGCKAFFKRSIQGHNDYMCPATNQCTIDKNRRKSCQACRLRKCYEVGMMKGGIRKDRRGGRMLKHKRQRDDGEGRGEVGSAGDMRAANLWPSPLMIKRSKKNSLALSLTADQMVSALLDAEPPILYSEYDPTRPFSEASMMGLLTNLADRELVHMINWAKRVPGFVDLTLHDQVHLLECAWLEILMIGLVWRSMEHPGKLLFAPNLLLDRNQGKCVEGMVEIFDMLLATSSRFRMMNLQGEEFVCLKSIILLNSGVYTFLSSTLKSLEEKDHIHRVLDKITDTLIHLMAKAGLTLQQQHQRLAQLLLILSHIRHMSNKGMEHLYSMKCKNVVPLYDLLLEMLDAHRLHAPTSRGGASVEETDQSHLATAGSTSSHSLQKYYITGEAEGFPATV

With `Cc1cn(C2=CCC3C4CC=C5C[C@@H](NC(=O)c6ccc(F)cc6)CC[C@]5(C)C4CC[C@]23C)cn1` (stereo partly specified) the IC50 (LNCaP) was 0.473 µM, the IC50 [1] was > 40 µM and the EC50 (Androgen receptor) was 1.28 µM. The IC50 [2] was 0.1 µM, the half-life [3] was 3.28 h and the Tmax [4] was 4 h. The Cmax [5] was 6.43 µg/mL, the AUCt [6] was 68872 h/ng/mL and the Activity [7] was -64%. The Activity [8] was -65%, the inhibition in vivo at 10 mg/kg [9] was 56% and the Activity [10] was “Non-Toxic”. For the same molecule, the Activity [11] was “Non-Toxic”, the Activity [12] was “Non-Toxic” and the IC50 (Progesterone receptor) was > 30 µM. For the same molecule, the IC50 (Glucocorticoid receptor) was > 30 µM, the IC50 (Estrogen receptor) was 0.103 µM and the IC50 (Cytochrome P450 1A2) was 25 µM. The IC50 (Cytochrome P450 2C19) was 4.1 µM, the IC50 (Cytochrome P450 2C9) was 30.8 µM and the IC50 (Cytochrome P450 2D6) was 50 µM. The IC50 (Cytochrome P450 3A4 [13]) was 1.25 µM, the IC50 (Cytochrome P450 3A4 [14]) was 0.81 µM and the “inhibition (INH)” value [15] was “Not Active”. The Activity [16] was “Non-Toxic”, the Activity [17] was “Non-Toxic” and the Activity [18] was “Non-Toxic”. The Activity [19] was “Non-Toxic”, the Activity [20] was “Non-Toxic” and the Activity [21] was “Non-Toxic”. The Activity [22] was “Non-Toxic”, the Activity [23] was “Non-Toxic” and the Activity [24] was “Non-Toxic”. The Activity [25] was “Non-Toxic”, the Activity [26] was “Non-Toxic” and the Activity [27] was “Non-Toxic”.
